# Results published in US20190350995A1, “THERAPEUTIC COMPOSITION DERIVED FROM ANTHOSTEMA SENEGALENSE” (LABORATOIRE MICHEL IDERNE, priority 2016, published 2019).
# Read-outs that look alike come from different tables or passages of the source.
# Experiments:
# [1] = system: HIV type 2 (strain ROD); test: In vitro anti-viral replication test (method of E De Clercq, MTT) against HIV type 2 (strain ROD) in infected MT-4 cells; type: cell-based, HIV-2; conditions: for HIV-2 SI: selectivity index, ratio CC50/EC50; for biological (inhibitory) activity against HIV-2, in words: in vitro, "significant" = CC50≥45 μg/mL and selectivity index ≥50
# Procedure: (§1) The anti-viral replication efficiency of the molecules of the chemical composition of the invention was tested in vitro against the replication of the viruses HIV type 1 (strain MO and HIV type 2 (strain ROD) in the infected MT-4 cells.
# (§2) More specifically, the antiretroviral activity of the molecules was tested by effectively carrying out the method of E De Clercq in a microplate.
# (§3) This method consists of producing a cell culture of MT-4 in a microplate, containing as cell culture medium: the medium developed by the Roswell Park Memorial Institute (referred to as “RPMI 1640”), comprising of foetal calf serum, glutamine, sodium bicarbonate, and gentamicin as bacterial inhibitor.
# The molecules of the chemical composition of the invention are added at different concentrations into the cell growth medium. […] The MT4 cells placed in the presence of the molecules to be tested are referred to as “treated cells”.
# (§4) In each cell growth well, a defined amount of HIV-1 or HIV-2 is added in order to obtain the same concentration of virus in each well.
# (§5) The cells placed in the presence of the HIV are referred to as “infected cells”.
# (§6) Five days after the start of the process of infecting the MT4 cells with HIV-1 or HIV-2 in the presence of the molecules to be tested at different concentrations, a count is taken of the number of living cells by means of an MTT (tetrazolium salt) colorimetric assay by measuring the optical density at 540 nm.
# (§7) As negative controls, use is made of cells without HIV 1 or HIV 2, referred to as “non-infected cells”, as well as of cells without the molecules to be tested referred to as “untreated cells”.
# (§8) Thus, succinctly stated, the method of E De Clercq provides the means to obtain a density measurement at 540 nm for: • the cells infected with HIV-1 or HIV-2, treated with the molecules of the composition of the invention; • the cells not infected with HIV, treated with the molecules of the composition of the invention; • the cells infected with HIV-1 or HIV-2, not treated with the molecules of the composition of the invention; • the cells not infected with HIV, not treated with the molecules of the composition of the invention.
# (§9) In particular, the effectiveness of the molecules of the composition of the invention was tested: • by measurement and calculation of the (median) 50% inhibitory concentration (IC50); • by measurement and calculation of the 50% cytotoxic concentration (CC50); • by measurement and calculation of the 50% effective concentration dose (EC50); and • by measurement and calculation of the selectivity index (SI), of the fractions containing the said molecules in the presence of the two strains of HIV.
# (§10) The IC50 is the concentration of the molecule that makes it possible to decrease by 50% the viral proliferation of the negative control in vitro for a given time period, that is to say of the HIV without substance, only in its growth culture medium.
# (§11) The EC50 is calculated using the following formula:
# [(ODT)HIV^+]−[(ODC)HIV^+]/[(ODT)HIV^−]−[(ODC)HIV^−]×100
# Where: • (ODT)HIV^+ represents the optical density measurement at 540 nm, 5 days after infection, for the cells infected with HIV and treated with the composition of the invention, that is to say in the presence of molecules of the composition of the invention; • (ODC) HIV^+ represents the optical density measurement at 540 nm, 5 days after infection, for the cells infected with HIV in the absence of the molecules of the composition of the invention; • (ODT) HIV^− represents the optical density measurement at 540 nm, 5 days after infection, for the cells not infected with HIV and treated with the composition of the invention, that is to say in the presence of the molecules of the composition of the invention; i(ODC) HIV^− represents the optical density measurement at 540 nm, 5 days after infection, for the cells not infected with HIV in the absence of the molecules of the composition of the invention.
# The selectivity index represents the ratio CC50/EC50. […]
# [2] = system: HIV type 1; test: In vitro anti-viral replication test (method of E De Clercq, MTT) against HIV type 1 in infected MT-4 cells; type: cell-based, HIV-1; conditions: for HIV-1 SI: selectivity index, ratio CC50/EC50; for biological (inhibitory) activity against HIV-1, in words: in vitro, "significant" = CC50≥45 μg/mL and selectivity index ≥50
# Procedure: as §1, §2, §3
# (§12) The molecules of the chemical composition of the invention are added at different concentrations into the cell growth medium. Each concentration of molecules to be tested is prepared in triplicate. The MT4 cells placed in the presence of the molecules to be tested are referred to as “treated cells”.
# as §4, §5, §6, §7, §8, §9, §10, §11
# [(ODT)HIV^+]−[(ODC)HIV^+]/[(ODT)HIV^−]−[(ODC)HIV^−]×100 […]
# [3] = system: MT-4 cells; test: 50% cytotoxic concentration in MT-4 cells (MTT); type: cell-based; conditions: for HIV-1 CC 50: HIV-1, average over duplicates; for HIV-2 CC 50: HIV-2, average over duplicates; for CC50: Homo sapiens
# Procedure: as §3, §12, §6, §7, §8, §9
# The CC50 is the concentration of active molecules that makes it possible to decrease by 50% the […]. In other words, it is the concentration of active molecules that makes it possible to decrease by 50% the viability of cells.
# [4] = system: HIV-1 or HIV-2; test: In vitro anti-HIV test of fractions and isolated compounds, virus type not separated in the statement; type: cell-based
# Procedure: The anti-HIV activity was tested in vitro according to the method of Clerq E on each of the abovementioned fractions AsC4.1, AsC4.2, AsC4.3, AsC4.4, AsC4.5, AsC4.6, AsC4.7 and AsC4.8.
# More than ten different compounds were obtained for all of the different mobile phases used. Each compound was individually tested against HIV-1 and HIV-2 according to the in vitro method mentioned above.
# [5] = infected MT-4 cells, 5 days after infection, MTT, average over duplicates
# [6] = "significant" = CC50≥45 μg/mL and selectivity index ≥50
SMILES,"HIV-2 IC 50 [1, 5] [µg/mL]",HIV-2 SI [1],"HIV-1 IC 50 [2, 5] [µg/mL]",HIV-1 SI [2],HIV-1 CC 50 [3] [µg/mL],HIV-2 CC 50 [3] [µg/mL],"biological activity against HIV (HIV-1 or HIV-2), in words [4, 6]","biological (inhibitory) activity against HIV-2, in words [1]","biological (inhibitory) activity against HIV-1, in words [2]",other results
"Nc1ccn([C@H]2CC[C@@H](CO)O2)c(=O)n1 [Dideoxycitidine, dideoxycitidine]",0.19,>20,0.16,>20,0.12,0.11,–,–,–,–
"O=c1[nH]cnc2c1ncn2[C@H]1CC[C@@H](CO)O1 [Dideoxyinosine, dideoxyinosine]",3.78,>50,2.09,>50,0.68,1.22,–,–,–,–
"Cc1ccnc2c1NC(=O)c1cccnc1N2C1CC1 [Nevirapine, nevirapine]",–,<1,–,>4,–,–,–,–,–,"IC50 ([1]; Human immunodeficiency virus 2, MT4, 120 h, infected MT-4 cells, 5 days after infection, MTT, average over duplicates, read-out: HIV-2 IC 50): > 4 µg/mL; IC50 ([2]; Human immunodeficiency virus 1, MT4, 120 h, infected MT-4 cells, 5 days after infection, MTT, average over duplicates, read-out: HIV-1 IC 50): 0.05 µg/mL; CC50 ([3]; MT4, HIV-1, average over duplicates, read-out: HIV-1 CC 50): 0.011 µg/mL; CC50 ([3]; MT4, HIV-2, average over duplicates, read-out: HIV-2 CC 50): > 4 µg/mL"
CC(=O)OC1CCC2(C)C3CCC4C(=CC(=O)C5C(C)(C)CCCC45C)C3(C)CCC2C1(C)C (centres unmarked) [molecule A],–,–,–,–,–,–,significant biological activity,at least two times greater,at least two times greater,"biological activity against HIV (HIV-1 or HIV-2), in words ([4]; ""significant"" = CC50≥45 μg/mL and selectivity index ≥50, listed as AsC4.5.1.1): “significant” biological activity"
CC1(C)CC[C@]2(C(=O)O)CC=C3[C@]4(C)CCC5C(C)(C)[C@@H](OC(=O)c6ccccc6)[C@H](O)C[C@]5(C)C4CC[C@@]3(C)C2C1 (some centres unmarked) [molecule B],–,–,–,–,–,–,significant biological activity,at least two times greater,at least two times greater,"biological activity against HIV (HIV-1 or HIV-2), in words ([4]; ""significant"" = CC50≥45 μg/mL and selectivity index ≥50, listed as AsC4.5.7.2): “significant” biological activity"
